Patent publication US12098356B2, “Effects of space travel on human brain cells” (EMULATE, Inc., priority 2017, dated 2024)

System: glutamatergic neurons on the Brain-Chip
Assay: Calcium imaging (Fluo-4 AM) of neuronal activity on the Brain-Chip
Type: cell-based, human
Conditions: NMDA and AMPA receptor inhibition (DAP5 and CNQX respectively), compared to control without inhibitors
Description: FIG. 30A Spontaneous activity was studied by means of calcium imaging, enabling the investigation of neuronal activity of single cells and the network as a whole. Fluo-4 AM, a calcium sensitive fluorescent dye, was loaded onto the cells, and intracellular calcium fluctuations were monitored over time using high-speed imaging. […] FIG. 38A-C Pharmacological Targeting of the Glutamatergic Neurons in the Brain-Chip. […] Scale bars=200 μm. […] FIG. 38A-C Pharmacological Targeting of the Glutamatergic Neurons in the Brain-Chip. […] Scale bars=200 μm.

Structure (SMILES): N#Cc1cc2c(cc1[N+](=O)[O-])=NC(=O)C(=O)N=2 [CNQX, 6-cyano-7-nitroquinoxaline-2,3-dione]
- effect on percentage of active neurons: reduced the percentage of active neurons
